Structures can show the parent of a compound that is named as a salt.

The conditions of data set [1]: stability constant; cited from earlier work.
Another data set deals with Tel22. The data set is described as follows: CD melting, telomeric G4 control. The class given is binding. The settings on record: Tel22 4 μM, compound 8 μM, 100 mM KCl. The method, then: (§1) All oligonucleotides used in this study were from Sigma-Aldrich (Milan, Italy) (Table S2). For CD analysis, oligonucleotides were diluted to a final concentration of 4 μM in lithium cacodylate buffer (10 mM, pH 7.4) and KCl 100 mM. After the annealing step (95 °C for 5 min), DNA samples were gradually cooled to room temperature and compounds added from stock at final concentration of 8 μM. […] The reported spectrum of each sample represents the average of 2 scans and is baseline-corrected for signal contributions due to the buffer. Observed ellipticities were converted to mean residue ellipticity (θ) = deg × cm^2 × dmol^–1 (mol ellip). For the determination of Tm, spectra were recorded over a temperature range of 20–90 °C, with a temperature increase of 5 °C/min. Tm values were calculated according to the van’t Hoff equation, applied for a two-state transition from a folded to unfolded state, assuming that the heat capacity of the folded and unfolded states are equal.

The test system of a further data set is dsDNA. Nature of the data set: FRET melting assay, dsDNA control. The class given is binding. The settings on record: dsDNA 0.25 μM, compound 0.5 μM, 100 mM KCl. The method, then:
(§2) FRET assay was performed with FAM (6-carboxyfluorescein) 5′-end- and Tamra (6-carboxytetramethylrhodamine) 3′-end-labeled oligonucleotides (Table S1). Fluorescence melting curves were determined with a LightCycler II (Roche) real-time PCR machine, using a total reaction volume of 20 μL, with 0.25 μM tagged oligonucleotide in a buffer containing 10 mM lithium cacodylate pH 7.4 with 100 mM KCl, in the presence or absence of 0.5 μM NDI–tetraazacycloalkane conjugate. After a first equilibration step at 30 °C during 2 min, a stepwise increase of 1 °C every minute for 65 cycles to reach 95 °C was performed and measurements were made after each cycle with excitation at 470 nm and detection at 530 nm. Final analysis of the data was carried out using Excel and Sigma Plot software. Oligonucleotides melting was monitored by observing emission of FAM, which was normalized between 0 and 1: Tm was defined as the temperature at which the normalized emission is 0.5. Tm values were mean of 2–3 experiments and ΔTm was calculated as the difference Tm in the presence and absence of the compound.

For another data set, the system named is TZM-bl cells. The data set is described as follows: MTT cytotoxicity assay on uninfected cells. Type of data set: cell-based. The following applies: for CC50: uninfected TZM-bl. The method, then:
(§3) We used TZM-bl cells that are HeLa cells stably expressing large amounts of CD4, CXCR4, and CCR5, thus being highly susceptible to HIV-infection, with integrated luciferase and beta-galactosidase genes under the control of the HIV-1 promoter. We first tested NDI–tetraazacycloalkane conjugates’ cytotoxicity on TZM-bl cells by treating them with increasing amounts of compounds (0.097–25 μM) for 24 and 48 h.
(§4) Cytotoxicity of tested compounds was performed in parallel to antiviral and reporter assays by MTT. […] The selectivity index (SI) is the relative effectiveness of the tested compound in inhibiting viral replication compared to inducing cell death (CC50 value/IC50 value). […]. IC50 and CC50 values were calculated by using a nonlinear regression model.
(Tetrazolium dyes change colour on reduction, which living cells bring about.)

Data set [2] in a line: MTT cytotoxicity assay on uninfected cells. Type of data set: cell-based. The following applies: human, uninfected TZM-bl. The method, then:
as §3, §4

Data set [3] concerns LTR-III. The data set is described as follows: FRET melting assay, LTR-III G4. Type of data set: binding, HIV-1. The following applies: LTR-III 0.25 μM, compound 0.5 μM, 100 mM KCl. The method, then:
as §2

Data set [4] relates to LTR-III. The data set is described as follows: CD melting, LTR-III G4. The following applies: LTR-III 4 μM, compound 8 μM, 100 mM KCl. Type of data set: binding, HIV-1. The method, then: as §1
The test system of the next data set is HIV-1 R5 strain (BaL). The data set is described as follows: microbe, parasite or virus in culture. Type of data set: cell-based. The settings on record: TZM-bl; for IC50: Human immunodeficiency virus 1, BAL, R5 strain, MOI 0.3. The method, then: (§5) We next tested the antiviral activity of the NDI–tetraazacycloalkane conjugates in TZM-bl cells. Cells were infected with HIV-1 NL4–3 or BaL, two strains with different cell tropism due to the different coreceptors that are bound by the virus to get access into the cell: HIV-1 NL4–3 exploits the CXCR4 coreceptor (X4 strain), while HIV-1 BaL exploits the CCR5 coreceptor (R5 strain). Compounds were administered at the time of infection or 2 h post infection, and the antiviral activity was evaluated 24 and 48 h post infection. Cytotoxicity was tested in parallel on uninfected cells to assess compound cytotoxicity.
(§6) Cytotoxicity of tested compounds was performed in parallel to antiviral and reporter assays by MTT. […] The selectivity index (SI) is the relative effectiveness of the tested compound in inhibiting viral replication compared to inducing cell death (CC50 value/IC50 value). […] IC50 and CC50 values were calculated by using a nonlinear regression model.
(§7) HIV-1 infectivity was measured using the TZM-bl reporter cell line (obtained through the NIH AIDS Reagent Program, Division of AIDS, NIAID, NIH: TZM-bl cells (catalog no. 8129) from Dr. John C. Kappes, and Dr. Xiaoyun Wu). TZM-bl is a HeLa cell line stably expressing large amounts of CD4 and CCR5, constitutively expressing CXCR4 and containing integrated copies of the luciferase and β-galactosidase genes under the control of the HIV-1 promoter. TZM-bl were grown in DMEM supplemented with 10% FBS. Cells (1 × 10^4 cells/well) were seeded in 96-well plates and grown overnight to permit adherence prior to treatment and viral infection. Cells were next infected with HIV-1 NL4–3 strain or BaL strain at a MOI of respectively 0.5 and 0.3 for 1 h at 37 °C, treated with serial dilutions of tested compounds, and incubated at 37 °C. MOI values had been optimized in previous in-house experiments in order to obtain a well detectable virus release but avoid a virus-induced cytopathic effect. Compounds were reconstituted in DMSO, and dilutions were made in cell medium to maintain the same percentage of DMSO in all dilutions. Untreated cells were treated with the same solvent. After 24 or 48 h, cells were washed with PBS 1× and HIV-1 production was assessed following the LTR-luciferase signal using the britelite plus Reporter Gene Assay System (PerkinElmer, Waltman, MA, USA) according to the manufacturer’s protocol.

In the next data set the test system is HIV-1 X4 strain (NL4-3). The data set is described as follows: microbe, parasite or virus in culture. The following applies: for IC50: Human immunodeficiency virus 1, NL43, TZM-bl, X4 strain, MOI 0.5. The class given is cell-based. The method, then:
as §5, §6, §7

The subject of data set [5] is LTR-IV. The data set is described as follows: FRET melting assay, LTR-IV G4. Type of data set: binding, HIV-1. The following applies: LTR-IV 0.25 μM, compound 0.5 μM, 100 mM KCl. The method, then: as §2
The subject of data set [6] is LTR-IV. Nature of the data set: CD melting, LTR-IV G4. The class given is binding, HIV-1. The settings on record: LTR-IV 4 μM, compound 8 μM, 100 mM KCl. The method, then:
as §1

Another data set has as its system F21T. Type of data set: binding. The following applies: F21T 0.25 μM, compound 0.5 μM, 100 mM KCl. The method, then:
as §2

A further data set concerns T-tropic HIV. The settings on record: cited from earlier work.
For the next data set, the system named is HIV-1 X4 strain (NL4–3). The data set is described as follows: Time of addition (TOA) assay, X4 strain. The class given is cell-based.
[7] abbreviates: administration 0 hpi, evaluation 24 hpi.
[8] abbreviates: administration 2 hpi, evaluation 24 hpi.
The mark [9] stands for this setting: administration 2 hpi, evaluation 48 hpi.

Procedure for HIV-1 X4 strain (NL4–3): This assay indicates how long the addition of a compound can be postponed before it loses its antiviral activity: comparing the test compounds with reference drugs, whose mechanism is well characterized in the time frame of virus replication, it is possible to determine which viral steps are affected by the test compounds.[56]
Virus production was monitored at 25 h post infection, i.e., at the end of a single round of HIV-1 replication, by exploiting the LTR-driven luciferase reporter system.
25 h post infection HIV-1 production was assessed following the LTR-luciferase signal using the britelite plus Reporter Gene Assay System. The activity of the test compounds was compared with that of untreated infected cells and reference drugs (DS stands for dextran sulfate and NEV stands for nevirapine).
TZM-bl cells (1 × 10^4 cells/well) were seeded in 96-well plates and grown overnight to permit adherence prior to treatment and viral infection. Cells were next infected with HIV-1 NL4–3 or BaL strains (MOI 0.5 and 0.3, respectively) and incubated at 37 °C. […] Following these criteria, we used the highest possible concentrations with the lowest cytotoxicity. After 25 h, cells were washed with PBS 1× and HIV-1 production was assessed following the LTR-luciferase signal using the britelite plus Reporter Gene Assay System (PerkinElmer, Waltman, MA, USA) according to the manufacturer’s protocol.

With `C1CNCCNCCNCCNC1` [[13]aneN4], the “log Ka for Cu^2+” value in data set [1] is 24.41.

As for `CN(C)CCCNc1cc2c3c(c(NCCCCCC(=O)OCC4CNCCCNCCNCCN4)cc4c3c1C(=O)N(CCCN(C)C)C4=O)C(=O)N(CCCN(C)C)C2=O` (stereo not shown) [compound 5], the entries for the “Tm K^+ 100 mM + compound (CD)” value in the data set with Tel22, in the data set with LTR-III [4] and in the data set on LTR-IV [6] were 60.9 ± 0.3 °C, 78.6 ± 0.5 °C and 71.6 ± 0.4 °C, respectively. The “ΔTm (CD)” value in the data set on Tel22 is “–5.9 °C”; in the data set with LTR-III [4], 10.4 °C; with LTR-IV [6], 21.2 °C. Also, the “Tm K^+ 100 mM + compound (FRET)” value in the data set on dsDNA amounted to 65.0 ± 0.2 °C; with LTR-III [3], 77.7 ± 0.1 °C; in the data set on LTR-IV [5] it was 73.9 ± 0.6 °C; in the data set on F21T, 66.6 ± 0.1 °C. Besides, the “ΔTm (FRET)” value was 0.8 °C in the data set with dsDNA, 12.5 °C in the data set with LTR-III [3], 15.2 °C in the data set on LTR-IV [5] and 2.2 °C in the data set on F21T. Besides, the CC50 (commonly the concentration giving 50% cytotoxicity) in the data set with TZM-bl cells (parallel to R5, administration 0 hpi, evaluation 24 hpi) is over 25 µM; with TZM-bl cells (parallel to R5, administration 0 hpi, evaluation 48 hpi), over 25 µM; in the data set with TZM-bl cells (parallel to R5, administration 2 hpi, evaluation 48 hpi), over 25 µM; in the data set with TZM-bl cells (parallel to X4, administration 0 hpi, evaluation 24 hpi), over 25 µM; in the data set on TZM-bl cells (parallel to X4, administration 2 hpi, evaluation 24 hpi), over 25 µM; in the data set on TZM-bl cells (parallel to X4, administration 2 hpi, evaluation 48 hpi), over 25 µM. This molecule also registered a CC50 at 24 h in data set [2] (parallel to R5, administration 2 hpi, evaluation 24 hpi) of over 25 µM. The same molecule came in with a CC50 at 48 h in [2] (parallel to X4, administration 0 hpi, evaluation 48 hpi) of over 25 µM. For the same molecule, the IC50 (in general, the concentration at which inhibition is half-maximal) in the data set with HIV-1 R5 strain (BaL) (setting [7]) is over 25 µM; in the data set on HIV-1 R5 strain (BaL) (setting [8]) it was over 25 µM; with HIV-1 R5 strain (BaL) (setting [9]) it was 16.6 ± 1.33 µM; in the data set on HIV-1 X4 strain (NL4-3) (setting [7]), 17.8 ± 0.94 µM; in the data set on HIV-1 X4 strain (NL4-3) (administration 0 hpi, evaluation 48 hpi), 1.86 ± 0.49 µM; in the data set on HIV-1 X4 strain (NL4-3) (setting [8]) it was 12.1 ± 1.02 µM. Besides, in the data set with HIV-1 X4 strain (NL4-3) (setting [9]), the IC50 came to 1.82 ± 0.65 µM.

As to `c1cc(CN2CCCNCCNCCCNCC2)ccc1CN1CCCNCCNCCCNCC1` [AMD3100, 1,1′-[1,4-phenylenebis(methylene)]-bis-1,4,8,11-tetraazacyclotetradecane octahydrochloride dehydrate, reference compound], the “antiviral activity (in words)” value is “inactive” in the data set with HIV-1 R5 strain (BaL) (BaL strain, Figure S10) and “excellent activity” in the data set with HIV-1 X4 strain (NL4-3) (pNL4.3 strain, TZM-bl, Figure S10). Further, the “concentration preventing replication of T-tropic HIV (in words)” value in the data set with T-tropic HIV is recorded as “low nanomolar concentrations”.

On to `C1CNCCNCCNCCN1` [Cyclen], for which the “log Ka toward Cu^2+” value in data set [1] was 23.29.

dextran sulfate: the “time post infection up to which the control drug is active” value with HIV-1 X4 strain (NL4–3) is given as “active at the time of infection only”.

For `CN(C)CCCNc1cc2c3c(c(NCCCCCC(=O)O)cc4c3c1C(=O)N(CCCN(C)C)C4=O)C(=O)N(CCCN(C)C)C2=O` [parental NDI], in the data set with TZM-bl cells (TZM-bl, 24 h, Figure S11), the “cytotoxicity (in words)” value was “highly cytotoxic”.

Take `Cc1ccnc2c1NC(=O)c1cccnc1N2C1CC1` [nevirapine]: the “time post infection up to which the control drug is active” value in the data set with HIV-1 X4 strain (NL4–3) lay within 3 to 4 h.

The record behind these values is publication PMC10862543, “Naphthalene Diimide–Tetraazacycloalkane Conjugates Are G-Quadruplex-Based HIV-1 Inhibitors with a Dual Mode of Action” (ACS Infectious Diseases, 2024).
